One assay addresses T1, PDGF-BB (Homo sapiens, UniProt P01127).
T1 construct: host or cells: NIH 3T3 cells carry the receptor
Put plainly: Binding to PDGF-BB by native PAGE / SDS-PAGE gel electrophoresis. As to the method:
GFB-111 (50 μM) is incubated with buffer A (PBS 0.5% BSA) or PDGF-BB (1, 3 and 4µM in buffer A) at room temperature for 10 minutes. The mixtures are then loaded onto a native 4% PAGE. The gel is then stained with silver nitrate. Duplicate lanes are run in the same gel but are not stained. Bands corresponding to the boxed area are cut out of the lanes of the gel that is not stained, denatured with SDS-PAGE loading buffer (Tris 100 mM pH 6.8, 15% Glycerol, 3% SDS, 7.5% b-mercaptoethanol, 0.05% bromophenol blue), loaded onto a 4% SDS-PAGE gel and silver stained.
The structure activity relationship results in Table 1 are consistent with GFB-111 being a PDGF-BB binding molecule. […] PDGF to its receptor on NIH 3T3 cells is determined by gel electrophoresis by mixing GFB-111 with PDGF-BB. […] FIG. 2B illustrates that the GFB-111 standard (lane 5) as well as the GFB-111 band cut out of FIG. 2A gel (lane 1) migrates on SDS-PAGE as a single band that elutes faster than the dye front. Their separation on SDS-PAGE (lane 2) is confirmed by mixing PDGF-BB standard (lane 4) and GFB-111 standard (lane 5).
GFB-111 is incubated with increasing concentrations of PDGF-BB and the mixtures are then loaded onto native PAGE. […]

Assay [1] concerns PDGF-stimulated Erk1/Erk2 activation. In words: Inhibition of PDGF-stimulated activation of MAPK Erk1/Erk2 (p44/p42) in NIH 3T3 cells. The assay is classed as cell-based. To be noted: for Inhibition of PDGF-stimulated MAPKinase activation: FIG. 13.
Assay [2] concerns PDGF-stimulated PDGFR tyrosine phosphorylation. In words: Inhibition of PDGF-stimulated PDGFR tyrosine phosphorylation in NIH 3T3 cells (anti-phosphotyrosine Western blot). The assay is classed as cell-based. Background: A western blot detects proteins with antibodies after separation by electrophoresis.
[3] abbreviates: NIH 3T3, PDGF stimulated, head p42/Erk2 (p42 for GFB-132 to 137), read-out: (IC50) Inhibition p42/Erk2.

Read-outs that look alike come from different tables or passages of the source.

T1 sequence (P01127 82-190 limits assumed): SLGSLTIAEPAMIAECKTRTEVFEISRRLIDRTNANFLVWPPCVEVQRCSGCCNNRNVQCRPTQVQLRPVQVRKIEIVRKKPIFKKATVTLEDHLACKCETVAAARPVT

For `CCCCOc1c2cc(C(=O)Nc3cc4cc(c3)C(=O)NCC(=O)N[C@@H](CC(=O)O)C(=O)NCC(=O)N[C@@H](Cc3ccc(O)cc3)C(=O)NC4)cc1Cc1cc(C(=O)Nc3cc4cc(c3)C(=O)NCC(=O)N[C@@H](CC(=O)O)C(=O)NCC(=O)N[C@@H](Cc3ccc(O)cc3)C(=O)NC4)cc(c1OCCCC)Cc1cc(C(=O)Nc3cc4cc(c3)C(=O)NCC(=O)N[C@@H](CC(=O)O)C(=O)NCC(=O)N[C@@H](Cc3ccc(O)cc3)C(=O)NC4)cc(c1OCCCC)Cc1cc(C(=O)Nc3cc4cc(c3)C(=O)NCC(=O)N[C@@H](CC(=O)O)C(=O)NCC(=O)N[C@@H](Cc3ccc(O)cc3)C(=O)NC4)cc(c1OCCCC)C2` [GFB-111], on PDGF-BB, the “Binding to PDGF-BB (complex on native PAGE)” value is “does indeed contain both PDGF-BB and GFB-111”. In assay [1], the “Inhibition of PDGF-stimulated MAPKinase activation” value is recorded as “inhibits”. Also, the IC50 in assay [1] (NIH 3T3, FIG. 3A, read-out: IC50 PDGF-dependent activation of Erk1) came out at 800 nM; in assay [1] (NIH 3T3, FIG. 3A, read-out: IC50 PDGF-dependent activation of Erk2) it was 1200 nM; in assay [1] (setting [3]), 2600 nM; in assay [2] (read-out: IC50 of inhibition of PDGF-BB stimulation of PDGF receptor tyrosine autophosphorylation), 250 nM. In addition, the “Concentration giving complete block of PDGF-BB stimulated receptor tyrosine phosphorylation” value in assay [2] was determined as 3 µM.
GKGK [GFB-116]: the “Binding to PDGF-BB (complex on native PAGE)” value on PDGF-BB was “does not bind”. Also, the “Inhibition of PDGF-stimulated MAPKinase activation” value in assay [1] is “does not”. In addition, the IC50 was found to be 28000 nM in assay [1] (setting [3]) and 40000 nM in assay [2] (5 min pretreatment, PDGF 10 ng/ml 10 min, read-out: (IC50) Inhibition PDGFR-Y-P).

The values above are taken from patent US8361970B2, “Growth factor binding molecules” (University of South Florida, priority 2000, dated 2013).
